Assay [1] concerns the target T1, RORγ-LBD (Homo sapiens, UniProt P51449).
T1 construct: made in house; host or cells: SF9 cells (baculovirus)
T1 sequence (P51449 269-508 limits assumed): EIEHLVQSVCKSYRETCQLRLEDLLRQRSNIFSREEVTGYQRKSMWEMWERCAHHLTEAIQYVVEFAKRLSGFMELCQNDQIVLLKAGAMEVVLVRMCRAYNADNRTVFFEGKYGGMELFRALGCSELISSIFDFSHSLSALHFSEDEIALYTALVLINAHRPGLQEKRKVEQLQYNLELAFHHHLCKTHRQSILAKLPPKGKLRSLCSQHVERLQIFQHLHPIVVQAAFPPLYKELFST
Description: RORγ-Ligand Binding Domain (LBD) TR-FRET Assay.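 For TR-FRET Assay Max Response: 665/615 nm ratio relative to signal without ursolic acid or compound set at 100.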 The assay is classed as biochemical. In a few lines:
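TR-FRET read-out using a biotin-tagged SRC1 coactivator LXXLL peptide (200 nM final), with the antagonist ursolic acid present at 2 μM final. Receptor is His-tagged LBD expressed in SF9 cells, ~3 nM final in pH 7.0 Tris/KCl/EDTA/DTT/BSA buffer; compounds in 1% DMSO final.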

In assay [2] the target is T2, Gal4-RORγ-LBD (Homo sapiens, UniProt P51449).
T2 construct: expressed in transfected cells; host or cells: HEK-293 cells (pcDNA3.1neo plasmid)
T2 sequence (P51449 269-508 limits assumed): T1 sequence (P51449 269-508 limits assumed)
Description: Gal4-RORγ Luciferase Reporter Assay in HEK-293T Cells. Particulars: HEK-293 cells. The assay is classed as cell-based. An outline of the steps:
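Luminescence read-out (One-Glo, 10 min RT) after overnight compound exposure at 37 °C in HEK-293 cells carrying Gal4-RORγ-LBD plus a Gal4-luciferase reporter, in the presence of 2 μM ursolic acid. Max Response is the upper plateau from a 4-parameter logistic fit, normalized to untreated signal = 100.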

Where [3] appears, read: luciferase reporter, with 2 μM ursolic acid.

On to `O=c1[nH]nc(CC[C@H]2CN(S(=O)(=O)c3cccc(C(F)(F)F)c3)c3cc(-c4cc(F)ccc4F)ccc3O2)o1` [Compound 11, (S)-5-(2-(6-(2,5-difluorophenyl)-4-((3-(trifluoromethyl)phenyl)sulfonyl)-3,4-dihydro-2H-benzo[b][1,4]oxazin-2-yl)ethyl)-1,3,4-oxadiazol-2(3H)-one], for which, in assay [1], the EC50 is under 500 nM and the “TR-FRET Assay Max Response” value is “**** (The symbol “****” indicates a value greater than 200)”. Also, in assay [2] (setting [3]), the concentration giving a half-maximal response (EC50) was under 500 nM and the “Gal4-RORγ Assay Max Response” value is reported as “** (The symbol “**” indicates a value in the range of greater than 90 to 150)”.

Turning to `O=C(O)CC[C@H]1CN(S(=O)(=O)c2cccc(C3CC3)c2)c2cc(-c3cccc(Cl)c3)ccc2O1` [Compound 6H, (S)-3-(6-(3-chlorophenyl)-4-((3-cyclopropylphenyl)sulfonyl)-3,4-dihydro-2H-benzo[b][1,4]oxazin-2-yl)propanoic acid], in assay [1], the EC50 was under 500 nM and the “TR-FRET Assay Max Response” value is “**** (The symbol “****” indicates a value greater than 200)”. In assay [2] (setting [3]), the EC50 is under 500 nM and the “Gal4-RORγ Assay Max Response” value is “** (The symbol “**” indicates a value in the range of greater than 90 to 150)”.

As for `O=C(O)CC[C@H]1CN(S(=O)(=O)c2cccc(C(F)(F)F)c2)c2cc(-c3cccc(F)c3F)cc(F)c2O1` [Compound 22E, (S)-3-(6-(2,3-difluorophenyl)-8-fluoro-4-((3-(trifluoromethyl)phenyl)sulfonyl)-3,4-dihydro-2H-benzo[b][1,4]-oxazin-2-yl)propanoic acid], in assay [1], the EC50 is under 500 nM and the “TR-FRET Assay Max Response” value is “**** (The symbol “****” indicates a value greater than 200)”. Moreover, in assay [2] (setting [3]), the EC50 is under 500 nM and the “Gal4-RORγ Assay Max Response” value is given as “** (The symbol “**” indicates a value in the range of greater than 90 to 150)”.

Turning to `O=C(O)[C@@H]1CCCN1C(=O)NCC[C@H]1CN(S(=O)(=O)c2cccc(C(F)(F)F)c2)c2cc(-c3cc(F)ccc3F)ccc2O1` [Compound 23V, ((2-((S)-6-(2,5-difluorophenyl)-4-((3-(trifluoromethyl)phenyl)-sulfonyl)-3,4-dihydro-2H-benzo[b][1,4]oxazin-2-yl)ethyl)carbamoyl)-L-proline], in assay [1], the EC50 was under 500 nM and the “TR-FRET Assay Max Response” value was “**** (The symbol “****” indicates a value greater than 200)”. Besides, in assay [2] (setting [3]), the EC50 is 500 to 5000 nM and the “Gal4-RORγ Assay Max Response” value is reported as “** (The symbol “**” indicates a value in the range of greater than 90 to 150)”.

Regarding `O=c1[nH]c(OCCC[C@H]2CN(S(=O)(=O)c3cccc(C(F)(F)F)c3)c3cc(-c4cc(F)cc(F)c4)ccc3O2)no1` [Compound 36A, (S)-3-(3-(6-(3,5-difluoro-phenyl)-4-((3-(trifluoro-methyl)phenyl)sulfonyl)-3,4-dihydro-2H-benzo[b][1,4]-oxazin-2-yl)propoxy)-1,2,4-oxadiazol-5(4H)-one], in assay [1], the EC50 is under 500 nM and the “TR-FRET Assay Max Response” value is listed as “**** (The symbol “****” indicates a value greater than 200)”. For the same compound, in assay [2] (setting [3]), the EC50 was under 500 nM and the “Gal4-RORγ Assay Max Response” value is “**** (The symbol “****” indicates a value greater than 200)”.

As to `C[C@@](O)(CC[C@H]1CN(S(=O)(=O)c2cccc(C(F)(F)F)c2)c2cc(-c3cc(F)ccc3F)ccc2O1)C(=O)O` [Compound 40, (R)-4-((S)-6-(2,5-difluorophenyl)-4-((3-(trifluoromethyl)phenyl)sulfonyl)-3,4-dihydro-2H-benzo[b][1,4]oxazin-2-yl)-2-hydroxy-2-methylbutanoic acid], in assay [1], the EC50 was under 500 nM and the “TR-FRET Assay Max Response” value is “**** (The symbol “****” indicates a value greater than 200)”. Further, in assay [2] (setting [3]), the EC50 was 500 to 5000 nM and the “Gal4-RORγ Assay Max Response” value is reported as “** (The symbol “**” indicates a value in the range of greater than 90 to 150)”.

For `Cc1c(F)cccc1-c1ccc2c(c1)N(S(=O)(=O)c1cccc(C(F)(F)F)c1)C[C@H](CCC(=O)O)O2` [Compound 4AG, (S)-3-(6-(3-fluoro-2-methylphenyl)-4-((3-(trifluoromethyl)phenyl)sulfonyl)-3,4-dihydro-2H-benzo[b][1,4]oxazin-2-yl)propanoic acid], in assay [1], the EC50 is under 500 nM and the “TR-FRET Assay Max Response” value is recorded as “**** (The symbol “****” indicates a value greater than 200)”. Besides, in assay [2] (setting [3]), the EC50 was under 500 nM and the “Gal4-RORγ Assay Max Response” value was “** (The symbol “**” indicates a value in the range of greater than 90 to 150)”.

Take `Cc1cc(C)cc(-c2ccc3c(c2)N(S(=O)(=O)c2cccc(C(F)(F)F)c2)C[C@H](CC2(C(=O)O)CCOCC2)O3)c1` [Compound 78G, (S)-4-((6-(3,5-dimethylphenyl)-4-((3-(trifluoromethyl)phenyl)-sulfonyl)-3,4-dihydro-2H-benzo[b][1,4]oxazin-2-yl)methyl)tetrahydro-2H-pyran-4-carboxylic acid]: in assay [1], the EC50 is under 500 nM and the “TR-FRET Assay Max Response” value is reported as “** (The symbol “**” indicates a value in the range of greater than 90 to 150)”. Also, in assay [2] (2 μM ursolic acid), the EC50 was under 500 nM and the “Gal4-RORγ Assay Max Response” value is reported as “** (The symbol “**” indicates a value in the range of greater than 90 to 150)”.

As to `CC(C)c1cccc(S(=O)(=O)N2C[C@H](CCc3n[nH]c(=O)o3)Oc3ccc(-c4cc(F)ccc4F)cc32)c1` [Compound 28D, (S)-5-(2-(6-(2,5-difluorophenyl)-4-((3-isopropylphenyl)sulfonyl)-3,4-dihydro-2H-benzo[b][1,4]-oxazin-2-yl)ethyl)-1,3,4-oxadiazol-2(3H)-one], in assay [1], the EC50 is under 500 nM and the “TR-FRET Assay Max Response” value is given as “**** (The symbol “****” indicates a value greater than 200)”. Also, in assay [2] (setting [3]), the EC50 was under 500 nM and the “Gal4-RORγ Assay Max Response” value was “** (The symbol “**” indicates a value in the range of greater than 90 to 150)”.

As for `O=C(O)C1CCN(C(=O)CC[C@H]2CN(S(=O)(=O)c3cccc(C(F)(F)F)c3)c3cc(-c4cccc(C(F)(F)F)n4)cc(F)c3O2)CC1` [Compound 23E, (S)-1-(3-(8-fluoro-4-((3-(trifluoromethyl)phenyl)sulfonyl)-6-(6-(trifluoromethyl)pyridin-2-yl)-3,4-dihydro-2H-benzo[b][1,4]oxazin-2-yl)propanoyl)piperidine-4-carboxylic acid], in assay [1], the EC50 is under 500 nM and the “TR-FRET Assay Max Response” value was “**** (The symbol “****” indicates a value greater than 200)”. For the same compound, in assay [2] (setting [3]), the EC50 is under 500 nM and the “Gal4-RORγ Assay Max Response” value is “** (The symbol “**” indicates a value in the range of greater than 90 to 150)”.

As to `O=C(O)CC[C@H]1CN(S(=O)(=O)c2cccc(C(F)(F)F)c2)c2cc(-c3ccccc3C(F)(F)F)ccc2O1` [Compound 2BM, (S)-3-(6-(2-(trifluoromethyl)-phenyl)-4-((3-(trifluoromethyl)-phenyl)sulfonyl)-3,4-dihydro-2H-benzo[b][1,4]oxazin-2-yl)propanoic acid], in assay [1], the EC50 was under 500 nM and the “TR-FRET Assay Max Response” value is listed as “*** (The symbol “***” indicates a value in the range of greater than 150 to 200)”. In assay [2] (setting [3]), the EC50 is 500 to 5000 nM and the “Gal4-RORγ Assay Max Response” value is “** (The symbol “**” indicates a value in the range of greater than 90 to 150)”.

Consider `CCOc1cccc(-c2ccc3c(c2)N(S(=O)(=O)c2cccc(C(F)(F)F)c2)C[C@H](CCC(=O)O)O3)c1F` [Compound 4AA, (S)-3-(6-(3-ethoxy-2-fluorophenyl)-4-((3-(trifluoromethyl)phenyl)sulfonyl)-3,4-dihydro-2H-benzo[b][1,4]oxazin-2-yl)propanoic acid], for which, in assay [1], the EC50 was under 500 nM and the “TR-FRET Assay Max Response” value was “**** (The symbol “****” indicates a value greater than 200)”. For the same compound, in assay [2] (setting [3]), the EC50 was under 500 nM and the “Gal4-RORγ Assay Max Response” value is “** (The symbol “**” indicates a value in the range of greater than 90 to 150)”.

For `O=C(O)CC[C@H]1CN(S(=O)(=O)c2cccc(C(F)(F)F)c2)c2cc(-c3cncc(C(F)(F)F)c3)ccc2O1` [Compound 2AK, (S)-3-(4-((3-(trifluoromethyl)-phenyl)sulfonyl)-6-(5-(trifluoromethyl)pyridin-3-yl)-3,4-dihydro-2H-benzo[b][1,4]oxazin-2-yl)propanoic acid], in assay [1], the EC50 was under 500 nM and the “TR-FRET Assay Max Response” value was “**** (The symbol “****” indicates a value greater than 200)”. Further, in assay [2] (setting [3]), the EC50 was under 500 nM and the “Gal4-RORγ Assay Max Response” value is reported as “** (The symbol “**” indicates a value in the range of greater than 90 to 150)”.

For the compound `O=C(O)CC[C@H]1CN(S(=O)(=O)c2cccc(C(F)(F)F)c2)c2cc(-c3ncc(C(F)(F)F)s3)ccc2O1` [Compound 4H, (S)-3-(4-((3-(trifluoromethyl)-phenyl)sulfonyl)-6-(5-(trifluoromethyl)thiazol-2-yl)-3,4-dihydro-2H-benzo[b][1,4]oxazin-2-yl)propanoic acid], in assay [1], the EC50 was under 500 nM and the “TR-FRET Assay Max Response” value is recorded as “*** (The symbol “***” indicates a value in the range of greater than 150 to 200)”. Besides, in assay [2] (setting [3]), the EC50 is 500 to 5000 nM and the “Gal4-RORγ Assay Max Response” value is “* (The symbol “*” indicates a value in the range of 25 to 90)”.

The values above are taken from patent publication US10611740B2, “Aryl dihydro-2H-benzo[b][1,4]oxazine sulfonamide and related compounds for use as agonists of RORγ and the treatment of disease” (Lycera Corporation, priority 2015, dated 2020).
